US9242941B2, “Alkyl, fluoroalkyl-1,4-benzodiazepinone compounds” (BRISTOL-MYERS SQUIBB COMPANY, priority 2012, dated 2016)

Tests used:
human Notch 3 = experiment: Notch-CBF1 Transactivation Assay (Notch 3); type: cell-based; conditions: read-out: Notch 3 IC50; Notch-CBF1 transactivation luciferase assay in transfected HeLa cells; some values are an average of N experiments
Text: (§1) Notch-CBF1 Transactivation Assay
(§2) The Notch-CBF1 (C-promoter binding factor I) cell based transactivation assay is based on the ability of the released Notch intracellular domain fragments (NICDs) to function as transcription factors in conjunction with CBF1 and other nuclear factors. Luciferase assays were used to measure the antagonism of Notch-CBF1 transcriptional activity. HeLa cervical cancer cells are transiently co-transfected with pCDNA3.1/Hygro plasmids containing truncated Notch 1, Notch 2, Notch 3, or Notch 4 receptors and a PGL3 luciferase reporter vector containing 4 copies of CBF1 binding site. The cells were then tested for Notch-CBF1 activity in the absence or presence of test compounds. HeLa cells, maintained in DMEM (high glucose with HEPES), 1× glutamine/penicillin/streptomycin and 10% Fetal Bovine serum, were transiently transfected in a T175 Flask (4.5×10^6 cells/flask) using the Monster Transfection Kit (Minis #MIR2906) according to manufacturers specifications. Table 13 denotes respective DNA quantity for the transfections.
(§3) Assay media (5 μL) containing test compounds in final concentrations ranging from 5 μM to 8.4×10^−5 μM (3 fold serial dilutions) were added to the cells and the cell plates were then incubated for 18 hours at 37° C. and 5% CO2. Control wells contained DMSO vehicle (total counts) or 0.5 μM of an in-house small molecule inhibitor (background counts). Duplicates were used for each sample. Luciferase activity was measured after a 20-minute incubation with 50 μl STEADY-GLO® luciferase reagents according to manufacturer's specifications (Promega, Cat. #E2550) and analyzed by Envision plate reader (PerkinElmer, Boston, Mass.).
(§4) The antagonist effect of compounds was expressed as 100×[1−(average sample−average background)/(average total−average background)] where sample is the luciferase activity in the presence of test compound, background is equal to the luciferase activity in the presence of the small molecule inhibitor control and the total is signal induced in DMSO wells.

human Notch 1 = experiment: Notch-CBF1 Transactivation Assay (Notch 1); type: cell-based; conditions: read-out: Notch 1 IC50; Notch-CBF1 transactivation luciferase assay in transfected HeLa cells; some values are an average of N experiments
Text: as §1, §2, §3, §4

[1] = human metabolic stability half-life assay; conditions: microsomes, human liver microsomes
Method: Metabolic Stability Half-Life Panel
Incubation with Liver Microsomes

[2] = pH 7.4, CYP-mediated metabolic stability half life, NADPH-dependent
[3] = pH 7.4, HLM (t1/2, min), CYP-mediated (NADPH-dependent), 0.5 μM compound, 45 min time course, some values are an average of N experiments

Compound `Cc1cc(F)c2c(c1)C(c1ccccc1)=N[C@H](NC(=O)[C@H](CCC(F)(F)F)[C@H](CC1CC1)C(N)=O)C(=O)N2` [Example 17, (2R,3S)-3-(Cyclopropylmethyl)-N-((3S)-9-fluoro-7-methyl-2-oxo-5-phenyl-2,3-dihydro-1H-1,4-benzodiazepin-3-yl)-2-(3,3,3-trifluoropropyl)succinamide] has an IC50 (human Notch 3) of 26.4 nM, an IC50 (human Notch 1) of 9.7 nM and a half-life at 0.5 µM [1, 2] of at least 30 min. For the same compound, the half-life at 0.5 µM [1, 3] was 60 min.
With `Cc1ccc2c(c1F)NC(=O)[C@@H](NC(=O)[C@H](CCC(F)(F)F)[C@H](CC1CC1)C(N)=O)N=C2c1ccccc1` [Example 18, (2R,3S)-3-(Cyclopropylmethyl)-N-((3S)-9-fluoro-8-methyl-2-oxo-5-phenyl-2,3-dihydro-1H-1,4-benzodiazepin-3-yl)-2-(3,3,3-trifluoropropyl)succinamide] the IC50 (human Notch 3) was 6.9 nM, the IC50 (human Notch 1) was 6.5 nM and the half-life at 0.5 µM [1, 2] was at least 30 min. It also gave a half-life at 0.5 µM [1, 3] of over 120 min.
`Cc1cccc(C2=N[C@H](NC(=O)[C@H](CCC(F)(F)F)[C@H](CC3CC3)C(N)=O)C(=O)Nc3c(F)cccc32)c1` [Example 19, (2R,3S)-3-(Cyclopropylmethyl)-N-((3S)-9-fluoro-5-(3-methylphenyl)-2-oxo-2,3-dihydro-1H-1,4-benzodiazepin-3-yl)-2-(3,3,3-trifluoropropyl)succinamide] showed an IC50 (human Notch 3) of 7.2 nM, an IC50 (human Notch 1) of 2.7 nM and a half-life at 0.5 µM [1, 2] of at least 30 min. The half-life at 0.5 µM [1, 3] was 56 min.
Work on `CN1C(=O)[C@@H](NC(=O)[C@H](CCC(F)(F)F)[C@H](CC2CC2)C(N)=O)N=C(c2ccccc2)c2cccc(F)c21` [Example 20, (2R,3S)-3-(Cyclopropylmethyl)-N-((3S)-9-fluoro-1-methyl-2-oxo-5-phenyl-2,3-dihydro-1H-1,4-benzodiazepin-3-yl)-2-(3,3,3-trifluoropropyl)succinamide] yielded an IC50 (human Notch 3) of 9.1 nM, an IC50 (human Notch 1) of 3.4 nM and a half-life at 0.5 µM [1, 2] of at least 30 min. The half-life at 0.5 µM [1, 3] was 106 min.
For `COc1cccc2c1NC(=O)[C@@H](NC(=O)[C@H](CCC(F)(F)F)[C@H](CC1CC1)C(N)=O)N=C2c1ccc(Cl)cc1` [Example 21, (2R,3S)—N-((3S)-5-(4-Chlorophenyl)-9-methoxy-2-oxo-2,3-dihydro-1H-1,4-benzodiazepin-3-yl)-3-(cyclopropylmethyl)-2-(3,3,3-trifluoropropyl)succinamide], the IC50 (human Notch 3) was 2.4 nM, the IC50 (human Notch 1) was 2.4 nM and the half-life at 0.5 µM [1, 2] was at least 30 min. It also gave a half-life at 0.5 µM [1, 3] of 62 min.
`COc1cccc(C2=N[C@H](NC(=O)[C@H](CCC(F)(F)F)[C@H](CC3CC3)C(N)=O)C(=O)Nc3c(F)cccc32)c1` [Example 22, (2R,3S)-3-(Cyclopropylmethyl)-N-((3S)-9-fluoro-5-(3-methoxyphenyl)-2-oxo-2,3-dihydro-1H-1,4-benzodiazepin-3-yl)-2-(3,3,3-trifluoropropyl)succinamide] gave an IC50 (human Notch 3) of 12.5 nM, an IC50 (human Notch 1) of 12.9 nM and a half-life at 0.5 µM [1, 2] of at least 30 min. It also gave a half-life at 0.5 µM [1, 3] of 32 min.
Compound `NC(=O)[C@@H](CC1CC1)[C@@H](CCC(F)(F)F)C(=O)N[C@H]1N=C(c2cccc(F)c2)c2cccc(F)c2NC1=O` [Example 23, (2R,3S)-3-(Cyclopropylmethyl)-N-((3S)-9-fluoro-5-(3-fluorophenyl)-2-oxo-2,3-dihydro-1H-1,4-benzodiazepin-3-yl)-2-(3,3,3-trifluoropropyl)succinamide] has an IC50 (human Notch 3) of 8 nM, an IC50 (human Notch 1) of 4.8 nM and a half-life at 0.5 µM [1, 2] of at least 30 min. For the same compound, the half-life at 0.5 µM [1, 3] was 69 min.
With `NC(=O)[C@@H](CC1CC1)[C@@H](CCC(F)(F)F)C(=O)N[C@H]1N=C(c2cccc(Cl)c2)c2cccc(F)c2NC1=O` [Example 24, (2R,3S)—N-((3S)-5-(3-Chlorophenyl)-9-fluoro-2-oxo-2,3-dihydro-1H-1,4-benzodiazepin-3-yl)-3-(cyclopropylmethyl)-2-(3,3,3-trifluoropropyl)succinamide] the IC50 (human Notch 3) was 2.7 nM, the IC50 (human Notch 1) was 3.7 nM and the half-life at 0.5 µM [1, 2] was at least 30 min. The half-life at 0.5 µM [1, 3] was 76 min.
Work on `CCC[C@H](C(N)=O)[C@@H](CCC(F)(F)F)C(=O)N[C@H]1N=C(c2ccc(Cl)cc2)c2cccc(OC)c2NC1=O` [Example 25, (2R,3S)—N-((3S)-5-(4-Chlorophenyl)-9-methoxy-2-oxo-2,3-dihydro-1H-1,4-benzodiazepin-3-yl)-3-propyl-2-(3,3,3-trifluoropropyl)succinamide] yielded an IC50 (human Notch 3) of 5.6 nM, an IC50 (human Notch 1) of 6.8 nM and a half-life at 0.5 µM [1, 2] of at least 30 min. The half-life at 0.5 µM [1, 3] was 31 min.
For `NC(=O)[C@@H](CC1CC1)[C@@H](CCC(F)(F)F)C(=O)N[C@H]1N=C(c2cccc(Cl)c2)c2cccc(Cl)c2NC1=O` [Example 26, (2R,3S)—N-((3S)-9-Chloro-5-(3-chlorophenyl)-2-oxo-2,3-dihydro-1H-benzo[e][1,4]diazepin-3-yl)-3-(cyclopropylmethyl)-2-(3,3,3-trifluoropropyl)succinamide], the IC50 (human Notch 3) was 2.1 nM, the IC50 (human Notch 1) was 1.9 nM and the half-life at 0.5 µM [1, 2] was at least 30 min. It also gave a half-life at 0.5 µM [1, 3] of 96 min.
Compound `NC(=O)[C@@H](CC1CC1)[C@@H](CCC(F)(F)F)C(=O)N[C@H]1N=C(c2ccc(Cl)cc2)c2cccc(Cl)c2NC1=O` [Example 27, (2R,3S)—N-((3S)-9-Chloro-5-(4-chlorophenyl)-2-oxo-2,3-dihydro-1H-1,4-benzodiazepin-3-yl)-3-(cyclopropylmethyl)-2-(3,3,3-trifluoropropyl)succinamide] has an IC50 (human Notch 3) of 1.6 nM, an IC50 (human Notch 1) of 4.6 nM and a half-life at 0.5 µM [1, 2] of at least 30 min. For the same compound, the half-life at 0.5 µM [1, 3] was 81 min.
Work on `CCC[C@H](C(N)=O)[C@@H](CCC(F)(F)F)C(=O)N[C@H]1N=C(c2ccc(Cl)cc2)c2cccc(Cl)c2NC1=O` [Example 28, (2R,3S)—N-((3S)-9-Chloro-5-(4-chlorophenyl)-2-oxo-2,3-dihydro-1H-1,4-benzodiazepin-3-yl)-3-propyl-2-(3,3,3-trifluoropropyl)succinamide] yielded an IC50 (human Notch 3) of 1.7 nM, an IC50 (human Notch 1) of 1.7 nM and a half-life at 0.5 µM [1, 2] of at least 30 min. For the same compound, the half-life at 0.5 µM [1, 3] was 39 min.
For `COc1ccc2c(c1F)NC(=O)[C@@H](NC(=O)[C@H](CCC(F)(F)F)[C@H](CC1CC1)C(N)=O)N=C2c1ccccc1` [Example 29, (2R,3S)-3-(Cyclopropylmethyl)-N-((3S)-9-fluoro-8-methoxy-2-oxo-5-phenyl-2,3-dihydro-1H-1,4-benzodiazepin-3-yl)-2-(3,3,3-trifluoropropyl)succinamide], the IC50 (human Notch 3) was 7.1 nM, the IC50 (human Notch 1) was 3.1 nM and the half-life at 0.5 µM [1, 2] was at least 30 min. It also gave a half-life at 0.5 µM [1, 3] of 99 min.
In the case of `Cc1cccc(C2=N[C@H](NC(=O)[C@H](CCC(F)(F)F)[C@H](CC3CC3)C(N)=O)C(=O)Nc3c(Cl)cccc32)c1` [Example 30, (2R,3S)—N-((3S)-9-Chloro-5-(3-methylphenyl)-2-oxo-2,3-dihydro-1H-1,4-benzodiazepin-3-yl)-3-(cyclopropylmethyl)-2-(3,3,3-trifluoropropyl)succinamide], the IC50 (human Notch 3) is reported as 5.2 nM, the IC50 (human Notch 1) is reported as 2.5 nM and the half-life at 0.5 µM [1, 2] is reported as at least 30 min. It also gave a half-life at 0.5 µM [1, 3] of 74 min.
`COc1cccc2c1NC(=O)[C@@H](NC(=O)[C@H](CCC(F)(F)F)[C@H](CC1CC1)C(N)=O)N=C2c1cccc(C)c1` [Example 31, (2R,3S)-3-(Cyclopropylmethyl)-N-((3S)-9-methoxy-5-(3-methylphenyl)-2-oxo-2,3-dihydro-1H-1,4-benzodiazepin-3-yl)-2-(3,3,3-trifluoropropyl)succinamide] showed an IC50 (human Notch 3) of 7.9 nM, an IC50 (human Notch 1) of 5.6 nM and a half-life at 0.5 µM [1, 2] of at least 30 min. It also gave a half-life at 0.5 µM [1, 3] of 52 min.
